Measured values as given in ChEMBL document CHEMBL4325853, “Design, synthesis and antibacterial evaluation of 2,4-disubstituted-6-thiophenyl-pyrimidines” (Eur J Med Chem, 2019).
The source made the active and inactive calls.

Experiments:
Staphylococcus aureus [1] = test: Potency index, ratio of methicillin MIC to test compound MIC for methicillin-resistant Staphylococcus aureus ATCC 33592; type: functional
Enterococcus faecalis [2] = test: Antibacterial activity against vancomycin-resistant Enterococcus faecalis ATCC 700221 after 18 hrs by broth microdilution method; type: functional; conditions: ATCC 700221, 18 h
Staphylococcus aureus [3] = test: Antibacterial activity against methicillin-resistant Staphylococcus aureus isolate 4548 after 18 hrs by broth microdilution method; type: functional; conditions: isolate 4548, 18 h
Staphylococcus aureus [4] = test: Antibacterial activity against methicillin-resistant Staphylococcus aureus isolate 2158 after 18 hrs by broth microdilution method; type: functional; conditions: isolate 2158, 18 h
Staphylococcus aureus [5] = test: Antibacterial activity against methicillin-resistant Staphylococcus aureus isolate 7664 after 18 hrs by broth microdilution method; type: functional; conditions: isolate 7664, 18 h
Staphylococcus aureus [6] = test: Antibacterial activity against methicillin-resistant Staphylococcus aureus isolate 7449 after 18 hrs by broth microdilution method; type: functional; conditions: isolate 7449, 18 h
Staphylococcus aureus [7] = test: Antibacterial activity against methicillin-resistant Staphylococcus aureus isolate 4955 after 18 hrs by broth microdilution method; type: functional; conditions: isolate 4955, 18 h
Staphylococcus aureus [8] = test: Antibacterial activity against methicillin-resistant Staphylococcus aureus isolate 7864 after 18 hrs by broth microdilution method; type: functional; conditions: isolate 7864, 18 h
Staphylococcus aureus [9] = test: Antibacterial activity against methicillin-resistant Staphylococcus aureus ATCC 33591 after 18 hrs by broth microdilution method; type: functional; conditions: ATCC 33591, 18 h
Staphylococcus aureus [10] = test: Antibacterial activity against methicillin-resistant Staphylococcus aureus isolate 7917 after 18 hrs by broth microdilution method; type: functional; conditions: isolate 7917, 18 h
Staphylococcus aureus [11] = test: Antibacterial activity against methicillin-resistant Staphylococcus aureus isolate 7717 after 18 hrs by broth microdilution method; type: functional; conditions: isolate 7717, 18 h
Staphylococcus aureus [12] = test: Antibacterial activity against methicillin-resistant Staphylococcus aureus isolate 7587 after 18 hrs by broth microdilution method; type: functional; conditions: isolate 7587, 18 h
Enterococcus faecium = test: Antibacterial activity against Enterococcus faecium ATCC 49624 after 18 hrs by broth microdilution method; type: functional; conditions: ATCC 49624, 18 h
Staphylococcus aureus [13] = test: Ratio of MBC to MIC for methicillin-resistant Staphylococcus aureus ATCC 43300; type: functional
Staphylococcus aureus [14] = test: Antibacterial activity against methicillin-resistant Staphylococcus aureus ATCC 33592 after 18 hrs by broth microdilution method; type: functional; conditions: ATCC 33592, 18 h
Enterococcus faecalis [15] = test: Potency index, ratio of berberine MIC to test compound MIC for Enterococcus faecalis ATCC 29212; type: functional
Staphylococcus aureus [16] = test: Antibacterial activity against methicillin-resistant Staphylococcus aureus isolate 7972 after 18 hrs by broth microdilution method; type: functional; conditions: isolate 7972, 18 h
Staphylococcus aureus [17] = test: Bactericidal activity against methicillin-resistant Staphylococcus aureus ATCC 43300 after 18 hrs by broth microdilution method; type: functional; conditions: ATCC 43300, 18 h
Staphylococcus aureus [18] = test: Antibacterial activity against methicillin-resistant Staphylococcus aureus isolate 1708 after 18 hrs by broth microdilution method; type: functional; conditions: isolate 1708, 18 h
Staphylococcus aureus [19] = test: Ratio of MBC to MIC for methicillin-resistant Staphylococcus aureus ATCC BAA41; type: functional
Staphylococcus aureus [20] = test: Antibacterial activity against methicillin-resistant Staphylococcus aureus isolate 4127 after 18 hrs by broth microdilution method; type: functional; conditions: isolate 4127, 18 h
Staphylococcus aureus [21] = test: Antibacterial activity against methicillin-resistant Staphylococcus aureus isolate 7682 after 18 hrs by broth microdilution method; type: functional; conditions: isolate 7682, 18 h
[22] = Selectivity index, ratio of HC50 for human erythrocytes to MIC for methicillin-resistant Staphylococcus aureus ATCC BAA1720; type: toxicity; conditions: read-out: Selectivity Index
Staphylococcus aureus [23] = test: Antibacterial activity against methicillin-resistant Staphylococcus aureus isolate 1428 after 18 hrs by broth microdilution method; type: functional; conditions: isolate 1428, 18 h
Staphylococcus aureus [24] = test: Potency index, ratio of methicillin MIC to test compound MIC for methicillin-resistant Staphylococcus aureus ATCC BAA1720; type: functional
Staphylococcus aureus [25] = test: Ratio of MIC for Staphylococcus aureus ATCC 29213 after and before 11 to 21 serial passages; type: functional
Staphylococcus aureus [26] = test: Antibacterial activity against methicillin-resistant Staphylococcus aureus isolate 7947 after 18 hrs by broth microdilution method; type: functional; conditions: isolate 7947, 18 h
Staphylococcus aureus [27] = test: Antibacterial activity against Staphylococcus aureus ATCC 29213 after 10 passages by broth microdilution method; type: functional, organism-based
[28] = test system: Staphylococcus epidermidis; test: Antibacterial activity against Staphylococcus epidermidis ATCC 12228 after 18 hrs by broth microdilution method; type: functional; conditions: ATCC 12228, 18 h
Staphylococcus aureus [29] = test: Antibacterial activity against methicillin-resistant Staphylococcus aureus ATCC 43300 after 18 hrs by broth microdilution method; type: functional; conditions: ATCC 43300, 18 h
Staphylococcus aureus [30] = test: Potency index, ratio of methicillin MIC to test compound MIC for methicillin-resistant Staphylococcus aureus ATCC 43300; type: functional
[31] = Hemolytic activity against human erythrocytes measured after 1 hr; type: ADME, cell-based, Erythrocyte
Bacillus subtilis = test: Antibacterial activity against Bacillus subtilis 168 after 18 hrs by broth microdilution method; type: functional; conditions: subsp. subtilis str. 168, 18 h
Staphylococcus aureus [32] = test: Antibacterial activity against methicillin-resistant Staphylococcus aureus isolate 3170 after 18 hrs by broth microdilution method; type: functional; conditions: isolate 3170, 18 h
Staphylococcus aureus [33] = test: Antibacterial activity against methicillin-resistant Staphylococcus aureus isolate 6334 after 18 hrs by broth microdilution method; type: functional; conditions: isolate 6334, 18 h
Staphylococcus aureus [34] = test: Antibacterial activity against methicillin-resistant Staphylococcus aureus isolate 2671 after 18 hrs by broth microdilution method; type: functional; conditions: isolate 2671, 18 h
Staphylococcus aureus [35] = test: Bactericidal activity against methicillin-resistant Staphylococcus aureus ATCC BAA41 after 18 hrs by broth microdilution method; type: functional; conditions: ATCC BAA41, 18 h
Staphylococcus aureus [36] = test: Antibacterial activity against methicillin-resistant Staphylococcus aureus isolate 8162 after 18 hrs by broth microdilution method; type: functional; conditions: isolate 8162, 18 h
Staphylococcus aureus [37] = test: Antibacterial activity against methicillin-resistant Staphylococcus aureus isolate 7960 after 18 hrs by broth microdilution method; type: functional; conditions: isolate 7960, 18 h
Staphylococcus aureus [38] = test: Antibacterial activity against methicillin-resistant Staphylococcus aureus isolate 5056 after 18 hrs by broth microdilution method; type: functional; conditions: isolate 5056, 18 h
Staphylococcus aureus [39] = test: Antibacterial activity against methicillin-resistant Staphylococcus aureus isolate 3096 after 18 hrs by broth microdilution method; type: functional; conditions: isolate 3096, 18 h
Staphylococcus aureus [40] = test: Potency index, ratio of methicillin MIC to test compound MIC for methicillin-resistant Staphylococcus aureus ATCC BAA41; type: functional
[41] = Selectivity index, ratio of HC50 for human erythrocytes to MIC for methicillin-resistant Staphylococcus aureus ATCC BAA41; type: toxicity; conditions: read-out: Selectivity Index

CC(C)c1ccc(CN2CCCN(CCc3cc(-c4cccs4)nc(-c4ccncc4)n3)CC2)cc1
> 64 µg/mL: HC50 at 1 h [31]
2 µg/mL: MIC90 (Enterococcus faecalis [2]) | MIC90 (Staphylococcus aureus [3]) | MIC90 (Staphylococcus aureus [4]) | MIC90 (Staphylococcus aureus [5]) | MIC90 (Staphylococcus aureus [6]) | MIC90 (Staphylococcus aureus [7]) | MIC90 (Staphylococcus aureus [8]) | MIC90 (Staphylococcus aureus [9]) | MIC90 (Staphylococcus aureus [10]) | MIC90 (Staphylococcus aureus [11]) | MIC90 (Staphylococcus aureus [12]) | MIC90 (Enterococcus faecium) | MIC90 (Staphylococcus aureus [14]) | MIC90 (Staphylococcus aureus [16]) | MIC90 (Staphylococcus aureus [18]) | MIC90 (Staphylococcus aureus [20]) | MIC90 (Staphylococcus aureus [23]) | MIC90 (Staphylococcus aureus [26]) | MIC90 [28] | MIC90 (Staphylococcus aureus [29]) | MIC90 (Bacillus subtilis) | MIC90 (Staphylococcus aureus [32]) | MIC90 (Staphylococcus aureus [33]) | MIC90 (Staphylococcus aureus [34]) | MBC (Staphylococcus aureus [35]) | MIC90 (Staphylococcus aureus [36]) | MIC90 (Staphylococcus aureus [37]) | MIC90 (Staphylococcus aureus [38]) | MIC90 (Staphylococcus aureus [39])
>100: Ratio (Staphylococcus aureus [1]) | Ratio (Staphylococcus aureus [24]) | Ratio (Staphylococcus aureus [30]) | Ratio (Staphylococcus aureus [40])
active: Activity (Staphylococcus aureus [27])
2: Ratio (Staphylococcus aureus [13])
4 µg/mL: MBC (Staphylococcus aureus [17]) | MIC90 (Staphylococcus aureus [21])
1: Ratio (Staphylococcus aureus [19]) | Ratio (Staphylococcus aureus [25])
50 - 100: Ratio (Enterococcus faecalis [15])
> 32: selectivity ratio [22] | selectivity ratio [41]

CN[C@H](CC(C)C)C(=O)N[C@H]1C(=O)N[C@@H](CC(N)=O)C(=O)N[C@H]2C(=O)N[C@H]3C(=O)N[C@H](C(=O)N[C@H](C(=O)O)c4cc(O)cc(O)c4-c4cc3ccc4O)[C@H](O)c3ccc(c(Cl)c3)Oc3cc2cc(c3O[C@@H]2O[C@H](CO)[C@@H](O)[C@H](O)[C@H]2O[C@H]2C[C@](C)(N)[C@H](O)[C@H](C)O2)Oc2ccc(cc2Cl)[C@H]1O [VANCOMYCIN]
2 µg/mL: MIC90 (Staphylococcus aureus [3]) | MIC90 (Staphylococcus aureus [9]) | MIC90 (Staphylococcus aureus [12]) | MIC90 (Enterococcus faecium) | MIC90 (Staphylococcus aureus [14]) | MIC90 (Staphylococcus aureus [29]) | MIC90 (Staphylococcus aureus [32]) | MIC90 (Staphylococcus aureus [37]) | MIC90 (Staphylococcus aureus [38])
0.5 µg/mL: MIC90 (Staphylococcus aureus [5]) | MIC90 (Staphylococcus aureus [23]) | MIC90 [28]
> 64 µg/mL: MIC90 (Enterococcus faecalis [2])
1 µg/mL: MIC90 (Staphylococcus aureus [4]) | MIC90 (Staphylococcus aureus [6]) | MIC90 (Staphylococcus aureus [7]) | MIC90 (Staphylococcus aureus [8]) | MIC90 (Staphylococcus aureus [10]) | MIC90 (Staphylococcus aureus [11]) | MIC90 (Staphylococcus aureus [16]) | MIC90 (Staphylococcus aureus [18]) | MIC90 (Staphylococcus aureus [20]) | MIC90 (Staphylococcus aureus [21]) | MIC90 (Staphylococcus aureus [26]) | MIC90 (Bacillus subtilis) | MIC90 (Staphylococcus aureus [33]) | MIC90 (Staphylococcus aureus [34]) | MIC90 (Staphylococcus aureus [36]) | MIC90 (Staphylococcus aureus [39])
